According to US9017645B2, “Homoglutamic acid derivatives” (Piramal Imaging SA, priority 2009, dated 2015):

Tested on: H460 tumor bearing mice
Assay: Biodistribution in H460 tumor bearing mice
Format: in vivo, NMRI (nu/nu) mice
Settings: for summary: urine: in %; for summary: carcass / summary: organs / summary: recovery: in % (unit assumed)
Protocol: Biodistribution in H460 tumor bearing mice. To test the pharmacokinetic properties of (2S)-2-amino-5-[3-[^18F]fluoropropyl]hexanedioic acid, the fluorinated compound was examined in H460 tumor bearing mice. NMRI (nu/nu) mice were inoculated with H460 tumor cells 8 to 10 days before the biodistribution studies. 185 kBq of activity of the fluorinated compound was injected into each mouse. n=3 mice were used at every time point. After injection of the F18-labeled compound, mice were sacrificed at the timepoints indicated. All organs were removed and radioactivity was determined using a γ-counter. […] Clearance of radioactivity takes place via the kidneys, with 67.9% of activity being excreted at 1 h p.i.

[1] = 1 h p.i., H460 tumor bearing mice

`N[C@@H](CCC(CCC[18F])C(=O)O)C(=O)O` (stereo partly drawn) [(2S)-2-amino-5-[3-[^18F]fluoropropyl]hexanedioic acid] was tested, and the “activity excreted via the kidneys” value [1] was 67.9%, the “uptake in the tumor” value [1] was 10.29 % injected dose per gram of tumor and the “retention of activity in the tumor” value (4 h p.i., H460 tumor bearing mice) was 5.85 % injected dose per gram of tumor. The “tumor to blood ratio” value (H460 tumor bearing mice) was 34.7, the “tumor to muscle ratio” value (H460 tumor bearing mice) was 62.6 and the Tumor/Tissue bone (timepoint 0.25 h) was 18.92. It also gave a Tumor/Tissue brain (timepoint 0.25 h) of 58.25, a Tumor/Tissue heart (timepoint 0.25 h) of 17.61 and a Tumor/Tissue kidney (timepoint 0.25 h) of 0.60. For the same molecule, the Tumor/Tissue muscle (timepoint 0.25 h) was 28.44, the Tumor/Tissue skin (timepoint 0.25 h) was 3.82 and the biodistribution adrenals (timepoint 0.25 h) was 1.18 % Dosis/g. For the same molecule, the biodistribution blood (timepoint 0.25 h) was 1.36 % Dosis/g, the biodistribution bone (timepoint 0.25 h) was 0.57 % Dosis/g and the biodistribution brain (timepoint 0.25 h) was 0.18 % Dosis/g. It also gave a biodistribution fat (timepoint 0.25 h) of 0.25 % Dosis/g, a biodistribution gallbladder (timepoint 0.25 h) of 1.08 % Dosis/g and a biodistribution heart (timepoint 0.25 h) of 0.60 % Dosis/g. It also gave a biodistribution intestine (timepoint 0.25 h) of 2.34 % Dosis/g, a biodistribution kidney (timepoint 0.25 h) of 17.49 % Dosis/g and a biodistribution lung (timepoint 0.25 h) of 3.22 % Dosis/g. The biodistribution muscle (timepoint 0.25 h) was 0.37 % Dosis/g, the biodistribution ovaries (timepoint 0.25 h) was 4.04 % Dosis/g and the biodistribution pancreas (timepoint 0.25 h) was 26.85 % Dosis/g. For the same molecule, the biodistribution skin (timepoint 0.25 h) was 2.82 % Dosis/g, the biodistribution spleen (timepoint 0.25 h) was 5.15 % Dosis/g and the biodistribution stomach (timepoint 0.25 h) was 10.27 % Dosis/g. It also gave a biodistribution tail (timepoint 0.25 h) of 8.12 % Dosis/g, a biodistribution thyroid (timepoint 0.25 h) of 2.05 % Dosis/g and a biodistribution tumor (timepoint 0.25 h) of 10.58 % Dosis/g. The biodistribution uterus (timepoint 0.25 h) was 4.37 % Dosis/g, the “summary: urine” value (timepoint 0.25 h) was 30.17 and the “summary: carcass” value (timepoint 0.25 h) was 18.07. For the same molecule, the “summary: organs” value (timepoint 0.25 h) was 39.99, the “summary: recovery” value (timepoint 0.25 h) was 88.24 and the Tumor/Tissue bone (timepoint 0.5 h) was 15.47. For the same molecule, the Tumor/Tissue brain (timepoint 0.5 h) was 69.00, the Tumor/Tissue heart (timepoint 0.5 h) was 34.35 and the Tumor/Tissue kidney (timepoint 0.5 h) was 1.43. The Tumor/Tissue muscle (timepoint 0.5 h) was 54.98, the Tumor/Tissue skin (timepoint 0.5 h) was 3.20 and the biodistribution adrenals (timepoint 0.5 h) was 0.67 % Dosis/g. It also gave a biodistribution blood (timepoint 0.5 h) of 0.45 % Dosis/g, a biodistribution bone (timepoint 0.5 h) of 0.53 % Dosis/g and a biodistribution brain (timepoint 0.5 h) of 0.12 % Dosis/g. It also gave a biodistribution fat (timepoint 0.5 h) of 0.18 % Dosis/g, a biodistribution gallbladder (timepoint 0.5 h) of 0.47 % Dosis/g and a biodistribution heart (timepoint 0.5 h) of 0.24 % Dosis/g. It also gave a biodistribution intestine (timepoint 0.5 h) of 1.96 % Dosis/g, a biodistribution kidney (timepoint 0.5 h) of 5.64 % Dosis/g and a biodistribution lung (timepoint 0.5 h) of 1.62 % Dosis/g. It also gave a biodistribution muscle (timepoint 0.5 h) of 0.15 % Dosis/g, a biodistribution ovaries (timepoint 0.5 h) of 6.23 % Dosis/g and a biodistribution pancreas (timepoint 0.5 h) of 21.26 % Dosis/g. It also gave a biodistribution skin (timepoint 0.5 h) of 2.51 % Dosis/g, a biodistribution spleen (timepoint 0.5 h) of 4.37 % Dosis/g and a biodistribution stomach (timepoint 0.5 h) of 7.82 % Dosis/g. It also gave a biodistribution tail (timepoint 0.5 h) of 5.67 % Dosis/g, a biodistribution thyroid (timepoint 0.5 h) of 1.58 % Dosis/g and a biodistribution tumor (timepoint 0.5 h) of 8.17 % Dosis/g. For the same molecule, the biodistribution uterus (timepoint 0.5 h) was 2.63 % Dosis/g, the summary: faeces (timepoint 0.5 h) was 0% and the “summary: urine” value (timepoint 0.5 h) was 48.69. The “summary: carcass” value (timepoint 0.5 h) was 10.51, the “summary: organs” value (timepoint 0.5 h) was 32.54 and the “summary: recovery” value (timepoint 0.5 h) was 91.75. For the same molecule, the Tumor/Tissue bone (timepoint 1.0 h) was 22.16, the Tumor/Tissue brain (timepoint 1.0 h) was 93.25 and the Tumor/Tissue heart (timepoint 1.0 h) was 57.45. For the same molecule, the Tumor/Tissue kidney (timepoint 1.0 h) was 3.31, the Tumor/Tissue muscle (timepoint 1.0 h) was 62.55 and the Tumor/Tissue skin (timepoint 1.0 h) was 4.24. The biodistribution adrenals (timepoint 1.0 h) was 0.61 % Dosis/g, the biodistribution blood (timepoint 1.0 h) was 0.30 % Dosis/g and the biodistribution bone (timepoint 1.0 h) was 0.46 % Dosis/g. It also gave a biodistribution brain (timepoint 1.0 h) of 0.11 % Dosis/g, a biodistribution fat (timepoint 1.0 h) of 0.14 % Dosis/g and a biodistribution gallbladder (timepoint 1.0 h) of 0.57 % Dosis/g. For the same molecule, the biodistribution heart (timepoint 1.0 h) was 0.18 % Dosis/g, the biodistribution intestine (timepoint 1.0 h) was 1.77 % Dosis/g and the biodistribution kidney (timepoint 1.0 h) was 3.10 % Dosis/g. For the same molecule, the biodistribution lung (timepoint 1.0 h) was 1.43 % Dosis/g, the biodistribution muscle (timepoint 1.0 h) was 0.16 % Dosis/g and the biodistribution ovaries (timepoint 1.0 h) was 1.86 % Dosis/g. For the same molecule, the biodistribution pancreas (timepoint 1.0 h) was 16.68 % Dosis/g, the biodistribution skin (timepoint 1.0 h) was 2.43 % Dosis/g and the biodistribution spleen (timepoint 1.0 h) was 2.87 % Dosis/g. It also gave a biodistribution stomach (timepoint 1.0 h) of 4.47 % Dosis/g, a biodistribution tail (timepoint 1.0 h) of 2.33 % Dosis/g and a biodistribution thyroid (timepoint 1.0 h) of 1.57 % Dosis/g. For the same molecule, the biodistribution tumor (timepoint 1.0 h) was 10.29 % Dosis/g, the biodistribution uterus (timepoint 1.0 h) was 2.45 % Dosis/g and the summary: faeces (timepoint 1.0 h) was 0%. For the same molecule, the “summary: urine” value (timepoint 1.0 h) was 67.90, the “summary: carcass” value (timepoint 1.0 h) was 9.28 and the “summary: organs” value (timepoint 1.0 h) was 25.76. The “summary: recovery” value (timepoint 1.0 h) was 102.93, the Tumor/Tissue bone (timepoint 2.0 h) was 18.25 and the Tumor/Tissue brain (timepoint 2.0 h) was 87.08. It also gave a Tumor/Tissue heart (timepoint 2.0 h) of 54.23, a Tumor/Tissue kidney (timepoint 2.0 h) of 6.15 and a Tumor/Tissue muscle (timepoint 2.0 h) of 62.45. For the same molecule, the Tumor/Tissue skin (timepoint 2.0 h) was 3.59, the biodistribution adrenals (timepoint 2.0 h) was 0.52 % Dosis/g and the biodistribution blood (timepoint 2.0 h) was 0.15 % Dosis/g. The biodistribution bone (timepoint 2.0 h) was 0.40 % Dosis/g, the biodistribution brain (timepoint 2.0 h) was 0.08 % Dosis/g and the biodistribution fat (timepoint 2.0 h) was 0.07 % Dosis/g. The biodistribution gallbladder (timepoint 2.0 h) was 0.48 % Dosis/g, the biodistribution heart (timepoint 2.0 h) was 0.13 % Dosis/g and the biodistribution intestine (timepoint 2.0 h) was 1.23 % Dosis/g. For the same molecule, the biodistribution kidney (timepoint 2.0 h) was 1.17 % Dosis/g, the biodistribution lung (timepoint 2.0 h) was 1.04 % Dosis/g and the biodistribution muscle (timepoint 2.0 h) was 0.11 % Dosis/g. The biodistribution ovaries (timepoint 2.0 h) was 1.58 % Dosis/g, the biodistribution pancreas (timepoint 2.0 h) was 7.70 % Dosis/g and the biodistribution skin (timepoint 2.0 h) was 1.97 % Dosis/g. The biodistribution stomach (timepoint 2.0 h) was 3.35 % Dosis/g, the biodistribution tail (timepoint 2.0 h) was 1.64 % Dosis/g and the biodistribution thyroid (timepoint 2.0 h) was 1.37 % Dosis/g. For the same molecule, the biodistribution tumor (timepoint 2.0 h) was 6.72 % Dosis/g, the biodistribution uterus (timepoint 2.0 h) was 2.72 % Dosis/g and the summary: faeces (timepoint 2.0 h) was 0.01%. For the same molecule, the “summary: urine” value (timepoint 2.0 h) was 68.67, the “summary: carcass” value (timepoint 2.0 h) was 9.12 and the “summary: organs” value (timepoint 2.0 h) was 17.68. The “summary: recovery” value (timepoint 2.0 h) was 94.72, the Tumor/Tissue bone (timepoint 4.0 h) was 15.04 and the Tumor/Tissue brain (timepoint 4.0 h) was 83.21. For the same molecule, the Tumor/Tissue heart (timepoint 4.0 h) was 68.93, the Tumor/Tissue kidney (timepoint 4.0 h) was 8.78 and the Tumor/Tissue muscle (timepoint 4.0 h) was 64.19. The Tumor/Tissue skin (timepoint 4.0 h) was 5.40, the biodistribution adrenals (timepoint 4.0 h) was 0.61 % Dosis/g and the biodistribution blood (timepoint 4.0 h) was 0.10 % Dosis/g. It also gave a biodistribution bone (timepoint 4.0 h) of 0.39 % Dosis/g, a biodistribution brain (timepoint 4.0 h) of 0.08 % Dosis/g and a biodistribution fat (timepoint 4.0 h) of 0.06 % Dosis/g. It also gave a biodistribution gallbladder (timepoint 4.0 h) of 0.70 % Dosis/g, a biodistribution heart (timepoint 4.0 h) of 0.08 % Dosis/g and a biodistribution intestine (timepoint 4.0 h) of 0.97 % Dosis/g. It also gave a biodistribution kidney (timepoint 4.0 h) of 0.72 % Dosis/g, a biodistribution lung (timepoint 4.0 h) of 0.81 % Dosis/g and a biodistribution muscle (timepoint 4.0 h) of 0.09 % Dosis/g. For the same molecule, the biodistribution ovaries (timepoint 4.0 h) was 2.18 % Dosis/g, the biodistribution pancreas (timepoint 4.0 h) was 4.51 % Dosis/g and the biodistribution skin (timepoint 4.0 h) was 1.31 % Dosis/g. It also gave a biodistribution stomach (timepoint 4.0 h) of 1.27 % Dosis/g, a biodistribution tail (timepoint 4.0 h) of 3.43 % Dosis/g and a biodistribution thyroid (timepoint 4.0 h) of 0.98 % Dosis/g. The biodistribution tumor (timepoint 4.0 h) was 5.85 % Dosis/g, the biodistribution uterus (timepoint 4.0 h) was 1.41 % Dosis/g and the summary: faeces (timepoint 4.0 h) was 2.1%. The “summary: urine” value (timepoint 4.0 h) was 77.27, the “summary: carcass” value (timepoint 4.0 h) was 4.03 and the “summary: organs” value (timepoint 4.0 h) was 12.00. The “summary: recovery” value (timepoint 4.0 h) was 94.87.
